Source: patent US20130130928A1, “METHODS FOR PREDICTING OR MONITORING WHETHER A PATIENT AFFECTED BY A CANCER IS RESPONSIVE TO A TREATMENT WITH A MOLECULE OF THE TAXOID FAMILY” (INSTITUT GUSTAVE ROUSSY, priority 2010, published 2013)

Assays:
[1] = system: docetaxel resistant cells (PC3 and DU145); conditions: cited from earlier work
[2] = system: IGR-CaP1 docetaxel-resistant cell lines (IGR-CaP1-R); assay: Genome-wide microarray gene expression analysis of docetaxel-resistant vs parental IGR-CaP1 cells, first analysis (Tables 1-4, FC exp1); type: cell-based, human
Procedure: (§1) The human androgen-independent IGR-CaP1 cell line recently obtained for a localized prostate cancer was maintained in RPMI medium complemented with 10% FBS and antibiotics.
Quality of RNA preparation, based on the RNA Integrity Number (RIN), was assessed using the Agilent RNA 6000 Nano Kit as developed on the Agilent 2100 Bioanalyzer device (Agilent Technologies, Palo Alto, Calif.). […] RNA samples were frozen in nuclease-free water (Qiagen).
Parental and resistant-cell line total RNAs were directly compared by using Agilent oligonucleotide dual-color technology, running dye-swap and duplicate experiments. Total RNA from the parental IGR-CaP1 cell line without treatment was used as the RNA reference. […] Probe synthesis and labeling were performed by Agilent's Low Fluorescent Low input Linear Amplification Kit. Hybridization was performed on the Agilent 4×44K Human 1A (G4112F) long (60-bp) oligonucleotide microarrays (Agilent Technologies) by using reagents and protocols provided by the manufacturer. Feature extraction software provided by Agilent (Version A.9.5.3.1) was used to quantify the intensity of fluorescent images and to normalize results using the linear and lowess subtraction method.
The methodology described below is based on a dose-dependent gene expression changes:
Under the hypothesis of a clone enrichment, and/or a biological effect due to drug increasing, monotonically increasing or decreasing expression profiles were identified by using a 5-parameters logistic regression model:
where yg is the log.ratio of treatment vs. reference for the gene g, x is the drug-dose in Log10[nM], and B, T, xc, p are, respectively, the estimated minimal value, the estimated maximal value, the slope at the inflexion point, and the asymmetric parameter. For each probe, parameters were first initialized with the observed values, and then optimized by an iterative method of gradient (the Newton-Raphson method). The aim of this iterative algorithm is to minimize the weighted quadratic sum of residuals:
The performance of the fitting was measured, for each probe, by a robust linear regression (RLR) of the fitted values against the observed values. Probes potentially associated with the drug increasing were selected on the 2 following criterion:
RLRp-value ≦1e-5, and |fold change|≧2 between the first and the last dose (resp: 5 and 200 nM), considering the fold change estimated by the 5-parameters logistic regression model. Calculations and graphic visualizations were performed in R (free software version 2.6.2), by using the package “MASS” (version 7.2-40), and supplemental scripts, in R language, written in the lab (F. Commo).
Untreated IGR-CaP1 parental cell lines were used as baseline. Such genes were those for which expression changes (at least one probe in case of multiple probe sets per gene) appeared as drug-dependent, in the sense of criterion described above.

[3] = system: IGR-CaP1 cells; assay: Generation of acquired resistance to docetaxel in vitro (dose-escalation selection of clones); type: cell-based, human; conditions: selection with docetaxel, before proliferation was regained
Source text: The prostate cancer cell line IGR-CaP1 is described in CNCM deposit number I-4126 on Feb. 10, 2009.
as §1
Prostate cancer IGR-CaP1 cells were used to generate successive docetaxel-resistant cell lines. […] Cell cycle analysis was done to show acquired resistance to drug.

[4] = system: prostate cancer; conditions: cited from earlier work
[5] = IGR-CaP1-R 100 nM docetaxel clone vs parental IGR-CaP1

For Oc1ccc(C=Cc2cc(O)cc(O)c2)cc1 [resveratrol], the apoptosis [1] is given as “increase of apoptosis” and the clusterin expression [1] is given as “decreased expression of clusterin”.
In the case of CC(=O)O[C@@]12CO[C@@H]1C[C@H](O)[C@@]1(C)C(=O)[C@H](O)C3=C(C)[C@@H](OC(=O)[C@H](O)[C@@H](NC(=O)OC(C)(C)C)c4ccccc4)C[C@@](O)([C@@H](OC(=O)c4ccccc4)[C@H]21)C3(C)C [docetaxel], the “ZFP62 gene expression 5 nM” value ([2]; IGR-CaP1-R 5 nM docetaxel clone vs parental IGR-CaP1) is reported as 0.190, the “ZFP62 gene expression 12 nM” value ([2]; IGR-CaP1-R 12 nM docetaxel clone vs parental IGR-CaP1) is reported as 0.246 and the “ZFP62 gene expression 25 nM” value ([2]; IGR-CaP1-R 25 nM docetaxel clone vs parental IGR-CaP1) is reported as 0.278. The “ZFP62 gene expression 50 nM” value ([2]; IGR-CaP1-R 50 nM docetaxel clone vs parental IGR-CaP1) was 0.402, the “LRRC44 gene expression 100 nM” value [2, 5] was 0.139 and the “ZFP62 gene expression 100 nM” value [2, 5] was 0.482. The “ZFP62 gene expression 200 nM” value ([2]; IGR-CaP1-R 200 nM docetaxel clone vs parental IGR-CaP1) was 0.503, the “cell death on addition of docetaxel” value [3] was “a large majority of cells initially underwent cell death” and the “patients developing resistance to the chemotherapy” value ([4]; from the beginning or in a secondary way) was “almost half”. The toxicity ([4]; patients) was “great toxicity” and the survival ([4]; prostate cancer patients, TAX 327 and SWOG 99-16) was “increase in survival”.
